Format in all cases: cell-based
Data set [1] in a line: Compound cytotoxicity, XTT-based colorimetric assay. As to conditions: human. The procedure, abridged:
(§1)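 Run under the antiviral-assay protocol but without virus. Viability was read on day 4 and CC50 values were derived from the readout.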

A further data set relates to recombinant NL4-3 virus. The data set can be described thus: HIV cell culture assay (antiviral activity, luciferase readout in MT-2 cells). Summed up:
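MT-2 cells infected for 4-5 days with NL4-3 reference virus carrying Renilla luciferase in place of part of nef, in presence of serial compound dilutions. Luciferase activity read with live-cell substrate. EC50 derived from median effect equation, slope parameter m.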

Another data set deals with uninfected MT2 cells. The data set can be described thus: Compound cytotoxicity, XTT-based colorimetric assay. As to conditions: uninfected MT2 cells, day 4, XTT. Summed up:
as §1

[2] abbreviates: uninfected MT2 cells, day 4, XTT, read-out: CC50.
[3] abbreviates: Human immunodeficiency virus 1, NL43, MT2.

Read-outs that look alike come from different tables or passages of the source. Where only a bound is given, the exact number is not on record here.

Regarding `CCCS(=O)(=O)Nc1nn(C)c2c(-n3c([C@H](Cc4cc(F)cc(F)c4)NC(=O)Cn4nc(C(F)F)c5c4C(F)(F)[C@@H]4C[C@H]54)nc4cc(N5CCOCC5)ccc4c3=O)ccc(Cl)c12` (atropisomer, axis not shown; (P)) [Example 66, N—((S)-1-((3P)-3-(4-chloro-1-methyl-3-(propylsulfonamido)-1H-indazol-7-yl)-7-morpholino-4-oxo-3,4-dihydroquinazolin-2-yl)-2-(3,5-difluorophenyl)ethyl)-2-((3bS,4aR)-3-(difluoromethyl)-5,5-difluoro-3b,4,4a,5-tetrahydro-1H-cyclopropa[3,4]cyclopenta[1,2-c]pyrazol-1-yl)acetamide], the CC50 at 4 days in data set [1] (setting [2]) was more than 500 nM. Besides, in the data set with recombinant NL4-3 virus (setting [3]), the EC50 is 0.066 nM.

`Cn1nc(NS(C)(=O)=O)c2c(Cl)ccc(-n3c([C@H](Cc4cc(F)cc(F)c4)NC(=O)Cn4nc(C(F)F)c5c4C(F)(F)[C@@H]4C[C@H]54)nc4cc(N5C6COCC5COC6)ccc4c3=O)c21` [Example 6, N—((S)-1-(7-(3,7-dioxa-9-azabicyclo[3.3.1]nonan-9-yl)-(3P)-3-(4-chloro-1-methyl-3-(methylsulfonamido)-1H-indazol-7-yl)-4-oxo-3,4-dihydroquinazolin-2-yl)-2-(3,5-difluorophenyl)ethyl)-2-((3bS,4aR)-3-(difluoromethyl)-5,5-difluoro-3b,4,4a,5-tetrahydro-1H-cyclopropa[3,4]cyclopenta[1,2-c]pyrazol-1-yl)acetamide] yielded a CC50 at 4 days in data set [1] of more than 500 nM. In addition, in the data set on recombinant NL4-3 virus (setting [3]), the concentration for a half-maximal effect (EC50) was found to be 0.145 nM.

Turning to `C[C@@H]1CN(c2ccc3c(=O)n(-c4ccc(Cl)c5c(NS(C)(=O)=O)nn(CC(F)F)c45)c([C@H](Cc4cc(F)cc(F)c4)NC(=O)Cn4nc(C(F)F)c5c4C(F)(F)[C@@H]4C[C@H]54)nc3c2)C[C@H](C)O1` [Example 8, N—((S)-1-((3P)-3-(4-chloro-1-(2,2-difluoroethyl)-3-(methylsulfonamido)-1H-indazol-7-yl)-7-((2S,6R)-2,6-dimethylmorpholino)-4-oxo-3,4-dihydroquinazolin-2-yl)-2-(3,5-difluorophenyl)ethyl)-2-((3bS,4aR)-3-(difluoromethyl)-5,5-difluoro-3b,4,4a,5-tetrahydro-1H-cyclopropa[3,4]cyclopenta[1,2-c]pyrazol-1-yl)acetamide], the CC50 in the data set on uninfected MT2 cells was more than 500 nM. The EC50 in the data set on recombinant NL4-3 virus (MT-2 cells infected for 4-5 days with recombinant NL4-3 virus carrying Renilla luciferase, luciferase activity, read-out: EC50) turned out to be 0.093 nM.

As for `Cn1nc(NS(C)(=O)=O)c2c(Cl)ccc(-n3c([C@H](Cc4cc(F)cc(F)c4)NC(=O)Cn4nc(C(F)F)c5c4C(F)(F)[C@@H]4C[C@H]54)nc4cc(N5CC6CCC(C5)O6)ccc4c3=O)c21` [Example 27, N—((S)-1-(7-((1R,5S)-8-oxa-3-azabicyclo[3.2.1]octan-3-yl)-(3P)-3-(4-chloro-1-methyl-3-(methylsulfonamido)-1H-indazol-7-yl)-4-oxo-3,4-dihydroquinazolin-2-yl)-2-(3,5-difluorophenyl)ethyl)-2-((3bS,4aR)-3-(difluoromethyl)-5,5-difluoro-3b,4,4a,5-tetrahydro-1H-cyclopropa[3,4]cyclopenta[1,2-c]pyrazol-1-yl)acetamide], in data set [1] (setting [2]), the CC50 at 4 days is more than 500 nM. The EC50 with recombinant NL4-3 virus (setting [3]) worked out at 0.051 nM.

Consider `COC1CCCN(c2ccc3c(=O)n(-c4ccc(Cl)c5c(NS(C)(=O)=O)nn(C)c45)c([C@H](Cc4cc(F)cc(F)c4)NC(=O)Cn4nc(C(F)F)c5c4C(F)(F)[C@@H]4C[C@H]54)nc3c2)C1` (stereo partly drawn) [Example 29, N-((1S)-1-((3P)-3-(4-chloro-1-methyl-3-(methylsulfonamido)-1H-indazol-7-yl)-7-(3-methoxypiperidin-1-yl)-4-oxo-3,4-dihydroquinazolin-2-yl)-2-(3,5-difluorophenyl)ethyl)-2-((3bS,4aR)-3-(difluoromethyl)-5,5-difluoro-3b,4,4a,5-tetrahydro-1H-cyclopropa[3,4]cyclopenta[1,2-c]pyrazol-1-yl)acetamide], for which the CC50 at 4 days in data set [1] (setting [2]) is more than 500 nM. For the same molecule, the EC50 with recombinant NL4-3 virus (setting [3]) was 0.052 nM.

Take `C[C@@H]1CN(c2ccc3c(=O)n(-c4ccc(Cl)c5c(NS(C)(=O)=O)nn(CC(F)F)c45)c([C@H](Cc4cc(F)cc(F)c4)NC(=O)Cn4nc(C(F)F)cc4C4CC4)nc3c2)C[C@H](C)O1` [Example 46, N—((S)-1-((3P)-3-(4-chloro-1-(2,2-difluoroethyl)-3-(methylsulfonamido)-1H-indazol-7-yl)-7-((2S,6R)-2,6-dimethylmorpholino)-4-oxo-3,4-dihydroquinazolin-2-yl)-2-(3,5-difluorophenyl)ethyl)-2-(5-cyclopropyl-3-(difluoromethyl)-1H-pyrazol-1-yl)acetamide]: the CC50 at 4 days in data set [1] (setting [2]) is more than 500 nM. In the data set on recombinant NL4-3 virus (setting [3]), the EC50 was determined as 0.58 nM.

For `Cc1cc(C(F)F)nn1C(C)C(=O)N[C@@H](Cc1cc(F)cc(F)c1)c1nc2cc(N3C[C@@H](C)O[C@@H](C)C3)ccc2c(=O)n1-c1ccc(Cl)c2c(NS(C)(=O)=O)nn(CC(F)F)c12` (stereo partly drawn) [Example 51, N—((S)-1-((3P)-3-(4-chloro-1-(2,2-difluoroethyl)-3-(methylsulfonamido)-1H-indazol-7-yl)-7-((2S,6R)-2,6-dimethylmorpholino)-4-oxo-3,4-dihydroquinazolin-2-yl)-2-(3,5-difluorophenyl)ethyl)-2-(3-(difluoromethyl)-5-methyl-1H-pyrazol-1-yl)propanamide], the CC50 at 4 days in data set [1] (setting [2]) was more than 500 nM. For the same molecule, the EC50 in the data set with recombinant NL4-3 virus (setting [3]) stood at 1.9 nM.

Regarding `C[C@@H]1CN(c2ccc3c(=O)n(-c4ccc(Cl)c5c(NS(C)(=O)=O)nn(CC(F)F)c45)c([C@H](Cc4cc(F)cc(F)c4)NC(=O)Cc4cn(C5CC5)c5ccccc45)nc3c2)C[C@H](C)O1` [Example 52, N—((S)-1-((3P)-3-(4-chloro-1-(2,2-difluoroethyl)-3-(methylsulfonamido)-1H-indazol-7-yl)-7-((2S,6R)-2,6-dimethylmorpholino)-4-oxo-3,4-dihydroquinazolin-2-yl)-2-(3,5-difluorophenyl)ethyl)-2-(1-cyclopropyl-1H-indol-3-yl)acetamide], in data set [1] (setting [2]), the CC50 at 4 days was more than 500 nM. Moreover, the half-maximal effective concentration (EC50) with recombinant NL4-3 virus (setting [3]) worked out at 1.1 nM.

Take `CC(C(=O)N[C@@H](Cc1cc(F)cc(F)c1)c1nc2cc(N3C[C@@H](C)O[C@@H](C)C3)ccc2c(=O)n1-c1ccc(Cl)c2c(NS(C)(=O)=O)nn(CC(F)F)c12)n1nc(C(F)(F)F)cc1C1CC1` (some centres unmarked) [Example 55]: in data set [1] (setting [2]), the CC50 at 4 days was more than 500 nM. In addition, the EC50 in the data set on recombinant NL4-3 virus (setting [3]) worked out at 4.3 nM.

Molecule `Cn1nc(NS(C)(=O)=O)c2c(Cl)ccc(-n3c([C@H](Cc4cc(F)cc(F)c4)NC(=O)Cn4nc(C(F)F)c5c4C(F)(F)[C@@H]4C[C@H]54)nc4cc(N5C6CCC5COC6)ccc4c3=O)c21` [Example 64, N—((S)-1-(7-((1R,5S)-3-oxa-8-azabicyclo[3.2.1]octan-8-yl)-(3P)-3-(4-chloro-1-methyl-3-(methylsulfonamido)-1H-indazol-7-yl)-4-oxo-3,4-dihydroquinazolin-2-yl)-2-(3,5-difluorophenyl)ethyl)-2-((3bS,4aR)-3-(difluoromethyl)-5,5-difluoro-3b,4,4a,5-tetrahydro-1H-cyclopropa[3,4]cyclopenta[1,2-c]pyrazol-1-yl)acetamide] yielded a 50% cytotoxic concentration (CC50) at 4 days in data set [1] of more than 500 nM. Further, the EC50 in the data set with recombinant NL4-3 virus (setting [3]) came out at 0.037 nM.

These data come from US20210395262A1, “INHIBITORS OF HUMAN IMMUNODEFICIENCY VIRUS REPLICATION” (ViiV HEALTHCARE UK (NO.5) LIMITED, priority 2018, published 2021).
